Results: ChEMBL document CHEMBL3044664, “Synthesis of coumarin-based 1,3,4-oxadiazol-2ylthio-N-phenyl/benzothiazolyl acetamides as antimicrobial and antituberculosis agents” (2013)
Converted amounts (≈) assume the structure as drawn.

Assays:
Assay type in all cases: functional
Pseudomonas aeruginosa = assay: Antibacterial activity against Pseudomonas aeruginosa MTCC 741 assessed as growth inhibition by agar streak dilution method
Proteus vulgaris = assay: Antibacterial activity against Proteus vulgaris MTCC 1771 assessed as growth inhibition by agar streak dilution method
Candida albicans = assay: Antifungal activity against Candida albicans MTCC 183 assessed as growth inhibition by agar streak dilution method
[1] = system: Mycobacterium tuberculosis; assay: Antitubercular activity against Mycobacterium tuberculosis H37Rv assessed as growth inhibition at MIC by Lowenstein-Jensen method
Salmonella typhi = assay: Antibacterial activity against Salmonella enterica subsp. enterica serovar Typhi MTCC 733 assessed as growth inhibition by agar streak dilution method
Aspergillus niger = assay: Antifungal activity against Aspergillus niger MTCC 282 assessed as growth inhibition by agar streak dilution method
Shigella flexneri = assay: Antibacterial activity against Shigella flexneri MTCC 1457 assessed as growth inhibition by agar streak dilution method
Staphylococcus aureus = assay: Antibacterial activity against Staphylococcus aureus MTCC 96 assessed as growth inhibition by agar streak dilution method
Escherichia coli = assay: Antibacterial activity against Escherichia coli MTCC 739 assessed as growth inhibition by agar streak dilution method
Aspergillus fumigatus = assay: Antifungal activity against Aspergillus fumigatus MTCC 343 assessed as growth inhibition by agar streak dilution method
Aspergillus clavatus = assay: Antifungal activity against Aspergillus clavatus MTCC 1323 assessed as growth inhibition by agar streak dilution method
Bacillus cereus = assay: Antibacterial activity against Bacillus cereus MTCC 430 assessed as growth inhibition by agar streak dilution method
[2] = system: Mycobacterium tuberculosis; assay: Antitubercular activity against Mycobacterium tuberculosis H37Rv assessed as growth inhibition by Lowenstein-Jensen method
[3] = system: Mycobacterium tuberculosis; assay: Antitubercular activity against Mycobacterium tuberculosis H37Rv assessed as growth inhibition by BACTEC MGIT method
Klebsiella pneumoniae = assay: Antibacterial activity against Klebsiella pneumoniae MTCC 109 assessed as growth inhibition by agar streak dilution method

O=C(CSc1nnc(-c2cc3ccccc3oc2=O)o1)Nc1nc2ccc(Br)cc2s1
MIC (Pseudomonas aeruginosa): 100 µg/mL (≈ 194 µM) | MIC (Proteus vulgaris): 50 µg/mL (≈ 97 µM) | MIC (Candida albicans): 50 µg/mL (≈ 97 µM) | growth inhibition (GI) [1]: 99% | MIC (Salmonella typhi): 100 µg/mL (≈ 194 µM) | MIC (Aspergillus niger): 25 µg/mL (≈ 48.5 µM) | MIC (Shigella flexneri): 50 µg/mL (≈ 97 µM) | MIC (Staphylococcus aureus): 25 µg/mL (≈ 48.5 µM) | MIC (Escherichia coli): 50 µg/mL (≈ 97 µM) | MIC (Aspergillus fumigatus): 100 µg/mL (≈ 194 µM) | MIC (Aspergillus clavatus): 100 µg/mL (≈ 194 µM) | MIC (Bacillus cereus): 3.12 µg/mL (≈ 6.05 µM) | MIC [2]: 12.5 µg/mL (≈ 24.3 µM) | MIC [3]: > 6.25 µg/mL | MIC (Klebsiella pneumoniae): 100 µg/mL (≈ 194 µM)

O=C(CSc1nnc(-c2cc3ccccc3oc2=O)o1)Nc1nc2ccc(Cl)cc2s1
MIC (Pseudomonas aeruginosa): 100 µg/mL (≈ 212 µM) | MIC (Proteus vulgaris): 50 µg/mL (≈ 106 µM) | MIC (Candida albicans): 100 µg/mL (≈ 212 µM) | growth inhibition (GI) [1]: 96% | MIC (Salmonella typhi): 50 µg/mL (≈ 106 µM) | MIC (Aspergillus niger): 12.5 µg/mL (≈ 26.5 µM) | MIC (Shigella flexneri): 25 µg/mL (≈ 53.1 µM) | MIC (Staphylococcus aureus): 50 µg/mL (≈ 106 µM) | MIC (Escherichia coli): 50 µg/mL (≈ 106 µM) | MIC (Aspergillus fumigatus): 25 µg/mL (≈ 53.1 µM) | MIC (Aspergillus clavatus): 100 µg/mL (≈ 212 µM) | MIC (Bacillus cereus): 6.25 µg/mL (≈ 13.3 µM) | MIC [2]: 62.5 µg/mL (≈ 133 µM) | MIC [3]: > 6.25 µg/mL | MIC (Klebsiella pneumoniae): 100 µg/mL (≈ 212 µM)

O=C(CSc1nnc(-c2cc3ccccc3oc2=O)o1)Nc1ccc(Br)cc1
MIC (Pseudomonas aeruginosa): 50 µg/mL (≈ 109 µM) | MIC (Proteus vulgaris): 100 µg/mL (≈ 218 µM) | MIC (Candida albicans): 50 µg/mL (≈ 109 µM) | growth inhibition (GI) [1]: 97% | MIC (Salmonella typhi): 100 µg/mL (≈ 218 µM) | MIC (Aspergillus niger): 50 µg/mL (≈ 109 µM) | MIC (Shigella flexneri): 100 µg/mL (≈ 218 µM) | MIC (Staphylococcus aureus): 50 µg/mL (≈ 109 µM) | MIC (Escherichia coli): 12.5 µg/mL (≈ 27.3 µM) | MIC (Aspergillus fumigatus): 100 µg/mL (≈ 218 µM) | MIC (Aspergillus clavatus): 100 µg/mL (≈ 218 µM) | MIC (Bacillus cereus): 12.5 µg/mL (≈ 27.3 µM) | MIC [2]: 62.5 µg/mL (≈ 136 µM) | MIC [3]: > 6.25 µg/mL | MIC (Klebsiella pneumoniae): 100 µg/mL (≈ 218 µM)

CCOc1ccc(NC(=O)CSc2nnc(-c3cc4ccccc4oc3=O)o2)cc1
MIC (Pseudomonas aeruginosa): 6.25 µg/mL (≈ 14.8 µM) | MIC (Proteus vulgaris): 100 µg/mL (≈ 236 µM) | MIC (Candida albicans): 50 µg/mL (≈ 118 µM) | growth inhibition (GI) [1]: 98% | MIC (Salmonella typhi): 50 µg/mL (≈ 118 µM) | MIC (Aspergillus niger): 100 µg/mL (≈ 236 µM) | MIC (Shigella flexneri): 100 µg/mL (≈ 236 µM) | MIC (Staphylococcus aureus): 25 µg/mL (≈ 59 µM) | MIC (Escherichia coli): 50 µg/mL (≈ 118 µM) | MIC (Aspergillus fumigatus): 100 µg/mL (≈ 236 µM) | MIC (Aspergillus clavatus): 100 µg/mL (≈ 236 µM) | MIC (Bacillus cereus): 100 µg/mL (≈ 236 µM) | MIC [2]: 25 µg/mL (≈ 59 µM) | MIC [3]: > 6.25 µg/mL | MIC (Klebsiella pneumoniae): 100 µg/mL (≈ 236 µM)

CC(=O)N1CCN(c2ccc(OCC3COC(Cn4ccnc4)(c4ccc(Cl)cc4Cl)O3)cc2)CC1 (centres undefined) [KETOCONAZOLE]
MIC (Candida albicans): 1.56 µg/mL (≈ 2.94 µM) | MIC (Aspergillus niger): 1.56 µg/mL (≈ 2.94 µM) | MIC (Aspergillus fumigatus): 0.78 µg/mL (≈ 1.47 µM) | MIC (Aspergillus clavatus): 0.78 µg/mL (≈ 1.47 µM)

N#Cc1ccc2nc(NC(=O)CSc3nnc(-c4cc5ccccc5oc4=O)o3)sc2c1
MIC (Pseudomonas aeruginosa): > 100 µg/mL | MIC (Proteus vulgaris): 100 µg/mL (≈ 217 µM) | MIC (Candida albicans): 50 µg/mL (≈ 108 µM) | growth inhibition (GI) [1]: 98% | MIC (Salmonella typhi): 100 µg/mL (≈ 217 µM) | MIC (Aspergillus niger): 100 µg/mL (≈ 217 µM) | MIC (Shigella flexneri): > 100 µg/mL | MIC (Staphylococcus aureus): 25 µg/mL (≈ 54.2 µM) | MIC (Escherichia coli): 50 µg/mL (≈ 108 µM) | MIC (Aspergillus fumigatus): > 100 µg/mL | MIC (Aspergillus clavatus): 100 µg/mL (≈ 217 µM) | MIC (Bacillus cereus): 100 µg/mL (≈ 217 µM) | MIC [2]: 100 µg/mL (≈ 217 µM) | MIC [3]: > 6.25 µg/mL | MIC (Klebsiella pneumoniae): 25 µg/mL (≈ 54.2 µM)

O=C(CSc1nnc(-c2cc3ccccc3oc2=O)o1)Nc1ccccc1
MIC (Pseudomonas aeruginosa): > 100 µg/mL | MIC (Proteus vulgaris): > 100 µg/mL | MIC (Candida albicans): 100 µg/mL (≈ 264 µM) | growth inhibition (GI) [1]: 95% | MIC (Salmonella typhi): > 100 µg/mL | MIC (Aspergillus niger): > 100 µg/mL | MIC (Shigella flexneri): > 100 µg/mL | MIC (Staphylococcus aureus): > 100 µg/mL | MIC (Escherichia coli): 100 µg/mL (≈ 264 µM) | MIC (Aspergillus fumigatus): > 100 µg/mL | MIC (Aspergillus clavatus): > 100 µg/mL | MIC (Bacillus cereus): 100 µg/mL (≈ 264 µM) | MIC [2]: 500 µg/mL (≈ 1320 µM) | MIC [3]: > 6.25 µg/mL | MIC (Klebsiella pneumoniae): > 100 µg/mL

CCOc1ccc2nc(NC(=O)CSc3nnc(-c4cc5ccccc5oc4=O)o3)sc2c1
MIC (Pseudomonas aeruginosa): 6.25 µg/mL (≈ 13 µM) | MIC (Proteus vulgaris): 100 µg/mL (≈ 208 µM) | MIC (Candida albicans): 100 µg/mL (≈ 208 µM) | growth inhibition (GI) [1]: 97% | MIC (Salmonella typhi): 12.5 µg/mL (≈ 26 µM) | MIC (Aspergillus niger): 100 µg/mL (≈ 208 µM) | MIC (Shigella flexneri): 100 µg/mL (≈ 208 µM) | MIC (Staphylococcus aureus): 12.5 µg/mL (≈ 26 µM) | MIC (Escherichia coli): 50 µg/mL (≈ 104 µM) | MIC (Aspergillus fumigatus): 100 µg/mL (≈ 208 µM) | MIC (Aspergillus clavatus): 50 µg/mL (≈ 104 µM) | MIC (Bacillus cereus): 25 µg/mL (≈ 52 µM) | MIC [2]: 50 µg/mL (≈ 104 µM) | MIC [3]: > 6.25 µg/mL | MIC (Klebsiella pneumoniae): 100 µg/mL (≈ 208 µM)

CC(=O)Nc1ccc(NC(=O)CSc2nnc(-c3cc4ccccc4oc3=O)o2)cc1
MIC (Pseudomonas aeruginosa): 50 µg/mL (≈ 115 µM) | MIC (Proteus vulgaris): > 100 µg/mL | MIC (Candida albicans): 100 µg/mL (≈ 229 µM) | growth inhibition (GI) [1]: 95% | MIC (Salmonella typhi): > 100 µg/mL | MIC (Aspergillus niger): > 100 µg/mL | MIC (Shigella flexneri): > 100 µg/mL | MIC (Staphylococcus aureus): 50 µg/mL (≈ 115 µM) | MIC (Escherichia coli): > 100 µg/mL | MIC (Aspergillus fumigatus): > 100 µg/mL | MIC (Aspergillus clavatus): 50 µg/mL (≈ 115 µM) | MIC (Bacillus cereus): 100 µg/mL (≈ 229 µM) | MIC [2]: 250 µg/mL (≈ 573 µM) | MIC [3]: > 6.25 µg/mL | MIC (Klebsiella pneumoniae): > 100 µg/mL

O=C(CSc1nnc(-c2cc3ccccc3oc2=O)o1)Nc1ccc(Cl)cc1
MIC (Pseudomonas aeruginosa): 100 µg/mL (≈ 242 µM) | MIC (Proteus vulgaris): 100 µg/mL (≈ 242 µM) | MIC (Candida albicans): 50 µg/mL (≈ 121 µM) | growth inhibition (GI) [1]: 96% | MIC (Salmonella typhi): 100 µg/mL (≈ 242 µM) | MIC (Aspergillus niger): 25 µg/mL (≈ 60.4 µM) | MIC (Shigella flexneri): 50 µg/mL (≈ 121 µM) | MIC (Staphylococcus aureus): 50 µg/mL (≈ 121 µM) | MIC (Escherichia coli): 25 µg/mL (≈ 60.4 µM) | MIC (Aspergillus fumigatus): 25 µg/mL (≈ 60.4 µM) | MIC (Aspergillus clavatus): 100 µg/mL (≈ 242 µM) | MIC (Bacillus cereus): 25 µg/mL (≈ 60.4 µM) | MIC [2]: 100 µg/mL (≈ 242 µM) | MIC [3]: > 6.25 µg/mL | MIC (Klebsiella pneumoniae): 100 µg/mL (≈ 242 µM)

O=C(CSc1nnc(-c2cc3ccccc3oc2=O)o1)Nc1nc2ccc([N+](=O)[O-])cc2s1
MIC (Pseudomonas aeruginosa): 100 µg/mL (≈ 208 µM) | MIC (Proteus vulgaris): 12.5 µg/mL (≈ 26 µM) | MIC (Candida albicans): 50 µg/mL (≈ 104 µM) | growth inhibition (GI) [1]: 96% | MIC (Salmonella typhi): 100 µg/mL (≈ 208 µM) | MIC (Aspergillus niger): 50 µg/mL (≈ 104 µM) | MIC (Shigella flexneri): 100 µg/mL (≈ 208 µM) | MIC (Staphylococcus aureus): 50 µg/mL (≈ 104 µM) | MIC (Escherichia coli): 100 µg/mL (≈ 208 µM) | MIC (Aspergillus fumigatus): 100 µg/mL (≈ 208 µM) | MIC (Aspergillus clavatus): 100 µg/mL (≈ 208 µM) | MIC (Bacillus cereus): 100 µg/mL (≈ 208 µM) | MIC [2]: 250 µg/mL (≈ 519 µM) | MIC [3]: > 6.25 µg/mL | MIC (Klebsiella pneumoniae): 50 µg/mL (≈ 104 µM)
